What was measured:
Eimeria maxima [1] = experiment: Anticoccidial activity against Eimeria maxima in chickens assessed as reduction of oocysts at 8 ppm measured after 8 days by ExMAC assay relative to untreated control; type: functional; parameters: scale not given: the % may be the effect or the level left
Eimeria maxima [2] = experiment: Anticoccidial activity against Eimeria maxima in chickens assessed as reduction of oocysts at 6 ppm measured after 8 days by ExMAC assay relative to untreated control; type: functional; parameters: scale not given: the % may be the effect or the level left
Eimeria maxima [3] = experiment: Anticoccidial activity against Eimeria maxima in chickens assessed as reduction of oocysts at 10 ppm measured after 8 days by ExMAC assay relative to untreated control; type: functional; parameters: scale not given: the % may be the effect or the level left
[4] = target: cGMP-dependent protein kinase (Eimeria tenella, UniProt Q8MMZ8); experiment: Inhibition of Eimeria tenella cGMP-dependent protein kinase
cGMP-dependent protein kinase, sequence (Q8MMZ8 whole entry): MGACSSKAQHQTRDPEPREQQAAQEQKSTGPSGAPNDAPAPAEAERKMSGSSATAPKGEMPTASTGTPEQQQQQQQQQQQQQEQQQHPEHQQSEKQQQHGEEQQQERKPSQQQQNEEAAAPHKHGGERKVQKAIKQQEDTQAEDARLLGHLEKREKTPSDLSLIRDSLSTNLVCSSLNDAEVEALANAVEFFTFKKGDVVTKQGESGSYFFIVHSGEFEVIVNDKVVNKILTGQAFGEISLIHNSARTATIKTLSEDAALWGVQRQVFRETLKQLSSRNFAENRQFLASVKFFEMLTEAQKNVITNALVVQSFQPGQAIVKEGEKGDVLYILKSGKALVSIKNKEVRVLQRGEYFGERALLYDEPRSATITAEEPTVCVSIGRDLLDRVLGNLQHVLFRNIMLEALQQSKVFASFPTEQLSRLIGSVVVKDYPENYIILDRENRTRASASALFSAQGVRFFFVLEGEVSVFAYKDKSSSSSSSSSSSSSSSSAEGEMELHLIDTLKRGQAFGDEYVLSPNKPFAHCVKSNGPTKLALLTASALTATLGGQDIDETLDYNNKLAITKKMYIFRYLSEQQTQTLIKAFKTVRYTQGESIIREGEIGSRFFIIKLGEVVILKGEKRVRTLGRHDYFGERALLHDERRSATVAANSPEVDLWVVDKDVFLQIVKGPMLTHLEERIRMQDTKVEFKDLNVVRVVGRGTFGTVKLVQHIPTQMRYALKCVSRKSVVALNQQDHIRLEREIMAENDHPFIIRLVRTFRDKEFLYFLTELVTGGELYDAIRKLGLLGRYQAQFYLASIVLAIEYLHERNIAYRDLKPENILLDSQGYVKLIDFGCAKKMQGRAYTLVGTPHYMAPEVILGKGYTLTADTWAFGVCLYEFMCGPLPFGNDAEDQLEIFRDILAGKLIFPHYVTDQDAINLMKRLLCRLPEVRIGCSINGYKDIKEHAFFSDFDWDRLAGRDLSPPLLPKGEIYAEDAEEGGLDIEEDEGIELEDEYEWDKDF

Eimeria tenella [5] = experiment: Anticoccidial activity against Eimeria tenella in chickens assessed as reduction of oocysts at 25 ppm measured after 8 days by ExMAC assay relative to untreated control; type: functional; parameters: scale not given: the % may be the effect or the level left
Eimeria tenella [6] = experiment: Anticoccidial activity against Eimeria tenella in chickens assessed as reduction of oocysts at 12.5 ppm measured after 8 days by ExMAC assay relative to untreated control; type: functional; parameters: scale not given: the % may be the effect or the level left
Eimeria tenella [7] = experiment: Anticoccidial activity against Eimeria tenella in chickens assessed as reduction of oocysts at 8 ppm measured after 8 days by ExMAC assay relative to untreated control; type: functional; parameters: scale not given: the % may be the effect or the level left
Eimeria tenella [8] = experiment: Anticoccidial activity against Eimeria tenella in chickens assessed as reduction of oocysts at 6 ppm measured after 8 days by ExMAC assay relative to untreated control; type: functional; parameters: scale not given: the % may be the effect or the level left
Eimeria tenella [9] = experiment: Anticoccidial activity against Eimeria tenella in chickens assessed as reduction of oocysts at 10 ppm measured after 8 days by ExMAC assay relative to untreated control; type: functional; parameters: scale not given: the % may be the effect or the level left
Eimeria acervulina [10] = experiment: Anticoccidial activity against Eimeria acervulina in chickens assessed as reduction of oocysts at 25 ppm measured after 8 days by ExMAC assay relative to untreated control; type: functional; parameters: scale not given: the % may be the effect or the level left
Eimeria acervulina [11] = experiment: Anticoccidial activity against Eimeria acervulina in chickens assessed as reduction of oocysts at 12.5 ppm measured after 8 days by ExMAC assay relative to untreated control; type: functional; parameters: scale not given: the % may be the effect or the level left
Eimeria acervulina [12] = experiment: Anticoccidial activity against Eimeria acervulina in chickens assessed as reduction of oocysts at 8 ppm measured after 8 days by ExMAC assay relative to untreated control; type: functional; parameters: scale not given: the % may be the effect or the level left
Eimeria acervulina [13] = experiment: Anticoccidial activity against Eimeria acervulina in chickens assessed as reduction of oocysts at 6 ppm measured after 8 days by ExMAC assay relative to untreated control; type: functional; parameters: scale not given: the % may be the effect or the level left
Eimeria acervulina [14] = experiment: Anticoccidial activity against Eimeria acervulina in chickens assessed as reduction of oocysts at 10 ppm measured after 8 days by ExMAC assay relative to untreated control; type: functional; parameters: scale not given: the % may be the effect or the level left
Eimeria mitis [15] = experiment: Anticoccidial activity against Eimeria mitis in chickens assessed as reduction of oocysts at 25 ppm measured after 8 days by ExMAC assay relative to untreated control; type: functional; parameters: scale not given: the % may be the effect or the level left
Eimeria mitis [16] = experiment: Anticoccidial activity against Eimeria mitis in chickens assessed as reduction of oocysts at 12.5 ppm measured after 8 days by ExMAC assay relative to untreated control; type: functional; parameters: scale not given: the % may be the effect or the level left
Eimeria mitis [17] = experiment: Anticoccidial activity against Eimeria mitis in chickens assessed as reduction of oocysts at 8 ppm measured after 8 days by ExMAC assay relative to untreated control; type: functional; parameters: scale not given: the % may be the effect or the level left
Eimeria mitis [18] = experiment: Anticoccidial activity against Eimeria mitis in chickens assessed as reduction of oocysts at 6 ppm measured after 8 days by ExMAC assay relative to untreated control; type: functional; parameters: scale not given: the % may be the effect or the level left
Eimeria mitis [19] = experiment: Anticoccidial activity against Eimeria mitis in chickens assessed as reduction of oocysts at 10 ppm measured after 8 days by ExMAC assay relative to untreated control; type: functional; parameters: scale not given: the % may be the effect or the level left
Eimeria maxima [20] = experiment: Anticoccidial activity against Eimeria maxima in chickens assessed as reduction of oocysts at 25 ppm measured after 8 days by ExMAC assay relative to untreated control; type: functional; parameters: scale not given: the % may be the effect or the level left
Eimeria maxima [21] = experiment: Anticoccidial activity against Eimeria maxima in chickens assessed as reduction of oocysts at 12.5 ppm measured after 8 days by ExMAC assay relative to untreated control; type: functional; parameters: scale not given: the % may be the effect or the level left
Eimeria tenella [22] = experiment: Anticoccidial activity against Eimeria tenella in chickens assessed as reduction of oocysts at 6.25 ppm measured after 8 days by ExMAC assay relative to untreated control; type: functional; parameters: scale not given: the % may be the effect or the level left
Eimeria tenella [23] = experiment: Anticoccidial activity against Eimeria tenella in chickens assessed as reduction of oocysts at 3.1 ppm measured after 8 days by ExMAC assay relative to untreated control; type: functional; parameters: scale not given: the % may be the effect or the level left
Eimeria acervulina [24] = experiment: Anticoccidial activity against Eimeria acervulina in chickens assessed as reduction of oocysts at 6.25 ppm measured after 8 days by ExMAC assay relative to untreated control; type: functional; parameters: scale not given: the % may be the effect or the level left
Eimeria acervulina [25] = experiment: Anticoccidial activity against Eimeria acervulina in chickens assessed as reduction of oocysts at 3.1 ppm measured after 8 days by ExMAC assay relative to untreated control; type: functional; parameters: scale not given: the % may be the effect or the level left
Eimeria mitis [26] = experiment: Anticoccidial activity against Eimeria mitis in chickens assessed as reduction of oocysts at 6.25 ppm measured after 8 days by ExMAC assay relative to untreated control; type: functional; parameters: scale not given: the % may be the effect or the level left
Eimeria mitis [27] = experiment: Anticoccidial activity against Eimeria mitis in chickens assessed as reduction of oocysts at 3.1 ppm measured after 8 days by ExMAC assay relative to untreated control; type: functional; parameters: scale not given: the % may be the effect or the level left
Eimeria maxima [28] = experiment: Anticoccidial activity against Eimeria maxima in chickens assessed as reduction of oocysts at 6.25 ppm measured after 8 days by ExMAC assay relative to untreated control; type: functional; parameters: scale not given: the % may be the effect or the level left
Eimeria maxima [29] = experiment: Anticoccidial activity against Eimeria maxima in chickens assessed as reduction of oocysts at 3.1 ppm measured after 8 days by ExMAC assay relative to untreated control; type: functional; parameters: scale not given: the % may be the effect or the level left
Eimeria maxima [30] = experiment: Anticoccidial activity against Eimeria maxima in chickens assessed as reduction of oocysts at 12 ppm measured after 8 days by ExMAC assay relative to untreated control; type: functional; parameters: scale not given: the % may be the effect or the level left
Eimeria maxima [31] = experiment: Anticoccidial activity against Eimeria maxima in chickens assessed as reduction of oocysts at 3 ppm measured after 8 days by ExMAC assay relative to untreated control; type: functional; parameters: scale not given: the % may be the effect or the level left
Eimeria tenella [32] = experiment: Anticoccidial activity against Eimeria tenella in chickens assessed as reduction of oocysts at 12 ppm measured after 8 days by ExMAC assay relative to untreated control; type: functional; parameters: scale not given: the % may be the effect or the level left
Eimeria tenella [33] = experiment: Anticoccidial activity against Eimeria tenella in chickens assessed as reduction of oocysts at 3 ppm measured after 8 days by ExMAC assay relative to untreated control; type: functional; parameters: scale not given: the % may be the effect or the level left
Eimeria acervulina [34] = experiment: Anticoccidial activity against Eimeria acervulina in chickens assessed as reduction of oocysts at 12 ppm measured after 8 days by ExMAC assay relative to untreated control; type: functional; parameters: scale not given: the % may be the effect or the level left
Eimeria acervulina [35] = experiment: Anticoccidial activity against Eimeria acervulina in chickens assessed as reduction of oocysts at 3 ppm measured after 8 days by ExMAC assay relative to untreated control; type: functional; parameters: scale not given: the % may be the effect or the level left
Eimeria mitis [36] = experiment: Anticoccidial activity against Eimeria mitis in chickens assessed as reduction of oocysts at 12 ppm measured after 8 days by ExMAC assay relative to untreated control; type: functional; parameters: scale not given: the % may be the effect or the level left
Eimeria mitis [37] = experiment: Anticoccidial activity against Eimeria mitis in chickens assessed as reduction of oocysts at 3 ppm measured after 8 days by ExMAC assay relative to untreated control; type: functional; parameters: scale not given: the % may be the effect or the level left

Molecule `CN1CCC(c2ccn3c(-c4ccnc(N)n4)c(-c4ccc(F)cc4)nc3c2)CC1` has an Activity (Eimeria maxima [1]) of 100%, an Activity (Eimeria maxima [2]) of 100% and an Activity (Eimeria maxima [3]) of 100%. The IC50 [4] was 0.044 nM, the Activity (Eimeria tenella [5]) was 100% and the Activity (Eimeria tenella [6]) was 100%. It also gave an Activity (Eimeria tenella [7]) of 100%, an Activity (Eimeria tenella [8]) of 100% and an Activity (Eimeria tenella [9]) of 100%. It also gave an Activity (Eimeria acervulina [10]) of 100%, an Activity (Eimeria acervulina [11]) of 100% and an Activity (Eimeria acervulina [12]) of 80%. For the same molecule, the Activity (Eimeria acervulina [13]) was 80%, the Activity (Eimeria acervulina [14]) was 100% and the Activity (Eimeria mitis [15]) was 100%. The Activity (Eimeria mitis [16]) was 100%, the Activity (Eimeria mitis [17]) was 80% and the Activity (Eimeria mitis [18]) was 80%. The Activity (Eimeria mitis [19]) was 100%, the Activity (Eimeria maxima [20]) was 100% and the Activity (Eimeria maxima [21]) was 100%.
Work on `CC(c1ccn2c(-c3ccnc(N)n3)c(-c3ccc(F)cc3)nc2c1)N(C)C` (stereo not drawn) yielded an IC50 [4] of 0.09 nM, an Activity (Eimeria tenella [22]) of 100% and an Activity (Eimeria tenella [23]) of 100%. The Activity (Eimeria acervulina [24]) was 100%, the Activity (Eimeria acervulina [25]) was 80% and the Activity (Eimeria mitis [26]) was 100%. For the same molecule, the Activity (Eimeria mitis [27]) was 80%, the Activity (Eimeria maxima [28]) was under 50% and the Activity (Eimeria maxima [29]) was 100%.
`CC(C)(N)c1ccn2c(-c3ccnc(N)n3)c(-c3ccc(F)cc3)nc2c1` was tested, and the Activity (Eimeria maxima [30]) was 100%, the Activity (Eimeria maxima [2]) was 80% and the Activity (Eimeria maxima [31]) was 80%. The IC50 [4] was 0.145 nM, the Activity (Eimeria tenella [32]) was 100% and the Activity (Eimeria tenella [8]) was 80%. For the same molecule, the Activity (Eimeria tenella [33]) was under 50%, the Activity (Eimeria acervulina [34]) was 80% and the Activity (Eimeria acervulina [13]) was 80%. The Activity (Eimeria acervulina [35]) was 50%, the Activity (Eimeria mitis [36]) was under 50% and the Activity (Eimeria mitis [18]) was under 50%. It also gave an Activity (Eimeria mitis [37]) of under 50%.
